Test results published in patent US20240173317A1, “METHODS FOR TREATING PROGRESSIVE FAMILIAL INTRAHEPATIC CHOLESTASIS” (MIRUM PHARMACEUTICALS, INC., priority 2022, published 2024).

Columns and labels:
Format in all cases: in vivo, human
[1] = test system: subjects with PFIC; assay: ItchRO(Obs) pruritus severity, MARCH-PFIC Phase 3 study; conditions: for percentage of pruritus response (ItchRO(Obs) responders): Week 15 to Week 26
Procedure: The primary analysis was conducted in the intent-to-treat (ITT) population of subjects with documented biallelic mutations in ABCB11 (PFIC 2), based on standard-of-care genotyping (primary cohort criteria). Subjects with a predicted complete absence of bile salt excretion pump (BSEP) function based on the type of ABCB11 mutation (PFIC 2), as determined by a standard-of-care genotype, were excluded from the primary cohort and could enroll only in the supplemental cohort. Subjects with other PFIC subtypes (e.g., PFIC 1/3/4/5/6, or new PFIC mutation variants) or postsurgical subjects (e.g., after internal or external biliary diversion surgery or subjects with reversal of biliary diversion surgery) were enrolled in a separate supplemental cohort and evaluated as part of secondary and exploratory analyses.
Subjects in the primary cohort were randomized in a 1:1 ratio to receive maralixibat or placebo. Subjects in the supplemental cohort were randomized in a 1:1 ratio to receive maralixibat or placebo within the following subcohorts: a) PFIC 1; b) PFIC 3; c) all other supplemental cohort subjects. All subjects received study treatment in addition to standard-of-care therapy, including antipruritic concomitant treatment.
For subjects assigned to maralixibat, the Dose Escalation period consisted of the following weekly steps: Dose level 1, 150 μg/kg maralixibat BID for 1 week; Dose level 2, 300 μg/kg maralixibat BID for 1 week; Dose level 3, 450 μg/kg maralixibat BID for 1 week; Dose level 4, 600 μg/kg maralixibat BID for the remaining duration of the study.
Efficacy. Severity of pruritus was assessed using the Itch caregiver/patient reported outcome measure (ItchRO™) administered as a twice daily electronic diary. Caregivers for all subjects completed the Observer instrument: ItchRO(Obs). The ItchRO(Obs) was completed by the same caregiver for consistency, whenever possible. Only subjects ≥9 years of age at screening completed the patient instrument: ItchRO(Pt). […] Pruritus was assessed and recorded twice daily, via ItchRO, beginning with the day after the screening visit and every day throughout the duration of the study. The severity of pruritus was measured by the completion of the first question in the ItchRO(Obs) (how severe were your child's itch-related symptoms) or ItchRO(Pt) (how itchy did you feel). The frequency of pruritus was measured by completion of the third question in the ItchRO(Obs) (how much of the time was your child rubbing or scratching) or ItchRO(Pt) (how much of last night/today did feeling itchy make you rub or scratch). Caregivers and subjects rated the severity and frequency of pruritus using 5 choices to describe their itching condition. ItchRO(Pt) and ItchRO(Obs) have been previously described in Kamath, et al., “Development of a Novel Tool to Assess the Impact of Itching in Pediatric Cholestasis,” Patient, 11:69-82 (2018), which is hereby incorporated by reference in its entirety for all purposes.
For this study, the primary estimand is the improvement in pruritus measured as change from baseline in the average morning ItchRO(Obs) severity score in the maralixibat treatment group relative to the placebo group. The primary analysis on the primary efficacy endpoint was conducted in 1) participants with PFIC 2 who fulfill criteria for the primary cohort in the ITT population (non-truncated primary “B SEP cohort” or “Primary cohort” with N=31), 2) all PFIC participants (excluding the participants with prior history of surgery, heterozygous participants and unknown types, “All PFIC cohort” or “PFIC cohort” with N=64), and 3) all study participants cohort, including the participants with prior history of surgery, heterozygous participants and unknown types. A restricted maximum likelihood (REML)-based mixed-effects model for repeated measures […] was used as the primary analysis method. […]

[2] = test system: patients with PFIC; assay: Bilirubin, MARCH-ON long-term extension; conditions: MRX-MRX group; Baseline through Week 52
Source text: (§1) Eighty-five patients from MARCH trial enrolled in MARCH-ON (Table 10, FIG. 29A). Forty-seven patients had received Maralixibat (MRX-MRX) and 38 had received placebo (PBO-MRX) during MARCH trial.
(§2) PFIC subtypes of patients included in the study were: non-truncated bile salt export pump (nt-B SEP, n=27), familial intrahepatic cholestasis-associated protein type 1 (F1C1, n=13); multidrug-resistance 3 protein (MDR3, n=9); tight junction protein 2 (TJP2, n=6); myosin VB (MYO5B, n=2); heterozygosis (n=2); truncated B SEP (t-B SEP, n=9); variant not found (n=8), fluctuating sBA (n=2); and surgery (n=7). Efficacy analyses included n=33 in the MRX-MRX group and n=24 in the PRO-MRX group. Subtypes nt-BSEP, F1C1, MDR3, TJP2, and MYO5B were included in the efficacy analyses. Baseline was defined as the start of maralixibat (MRX) treatment for each group.
Methods: Long-term maintenance of response was assessed for patients who were originally randomized to receive MRX in MARCH and continued with treatment in MARCH-ON (MRX-MRX group; n=33). MRX response was assessed for patients who received PBO in the MARCH study and switched to open-label MRX in MARCH-ON (PBO-MRX group; n=24). Assessments included: pruritus measured by 0-4 scale of ItchRO[Obs], sBA, bilirubin, and growth z-scores, as well as incidence of treatment-emergent adverse events(TEAEs). […]

[3] = Growth z-scores (height, weight), MARCH-ON long-term extension
Source text: as §1, §2
Methods: Long-term maintenance of response was assessed for patients who were originally randomized to receive MRX in MARCH and continued with treatment in MARCH-ON (MRX-MRX group; n=33). MRX response was assessed for patients who received PBO in the MARCH study and switched to open-label MRX in MARCH-ON (PBO-MRX group; n=24). Assessments included: pruritus measured by 0-4 scale of ItchRO[Obs], sBA, bilirubin, and growth z-scores, as well as incidence of treatment-emergent adverse events(TEAEs). Baseline (BL) was defined as the start of MRX for each group.

[4] = All PFIC cohort, Weeks 15-26, FIG. 6B
[5] = BSEP deficiency cohort, FIG. 7A
[6] = BSEP deficiency cohort, FIG. 7B
[7] = BSEP deficiency cohort, FIG. 17A
[8] = BSEP deficiency cohort, Weeks 15-26, FIG. 6A
[9] = MRX-MRX group (n = 20), Baseline to Week 52
[10] = PBO-MRX group (n = 15), Baseline to Week 26

CCCCC1(CCCC)CS(=O)(=O)c2ccc(N(C)C)cc2[C@@H](c2ccc(OCc3ccc(C[N+]45CCN(CC4)CC5)cc3)cc2)[C@H]1O [maralixibat, 1-(4-((4-((4R,5R)-3,3-dibutyl-7-(dimethylamino)-4-hydroxy-1,1-dioxido-2,3,4,5-tetrahydrobenzo[b]thiepin-5-yl)phenoxy)methyl)benzyl)-1,4-diazabicyclo[2.2.2]octan-1-ium]
difference from the placebo group, evening ItchRO[Obs] score ([1]; All PFIC cohort, FIG. 8A): 1.157 point | reduction from baseline in pruritus evening ItchRO[Obs] score ([1]; All PFIC cohort, FIG. 8A): 1.8 points | difference from the placebo group, maximum daily ItchRO[Obs] score ([1]; All PFIC cohort, FIG. 8B): 1.198 point | reduction from baseline in maximum pruritus daily ItchRO[Obs] score ([1]; All PFIC cohort, FIG. 8B): 1.9 points | percentage of pruritus response (ItchRO(Obs) responders) ([1]; All PFIC cohort, FIG. 14A): 63.6% | difference from the placebo group, morning ItchRO[Obs] score [1, 4]: 1.20 point | reduction from baseline in pruritus morning ItchRO[Obs] score [1, 4]: 1.8 points | median proportion of reported days with an ItchRO(Obs) score of 0-1 ([1]; All-PFIC (MRX n = 33), Weeks 15-26): 95% | difference from the placebo group, evening ItchRO[Obs] score [1, 5]: 1.111 point | reduction from baseline in pruritus evening ItchRO[Obs] score [1, 5]: 1.7 points | difference from the placebo group, maximum daily ItchRO[Obs] score [1, 6]: 1.130 point | reduction from baseline in maximum pruritus daily ItchRO[Obs] score [1, 6]: 1.8 points | difference vs placebo in proportion of pruritus responders (assessments ≤1) ([1]; BSEP deficiency cohort, FIG. 16A): 0.344 | difference vs placebo in proportion of pruritus responders (assessments ≤1 or decrease ≥1) [1, 7]: 0.398 | proportion of pruritus responders: proportion of assessments ≤1 or decrease ≥1 [1, 7]: over 0.7 | percentage of pruritus response (ItchRO(Obs) responders) ([1]; BSEP deficiency cohort, FIG. 13A): 57.1% | difference from the placebo group, morning ItchRO[Obs] score [1, 8]: 1.089 point | reduction from baseline in pruritus morning ItchRO[Obs] score [1, 8]: 1.7 points | proportion of pruritus responders: proportion of assessments ≤1 ([1]; BSEP deficiency cohort, morning and evening, FIG. 16A): over 0.6 | difference from the placebo group, morning ItchRO[Obs] score ([1]; FIC1 (PFIC 1) cohort, FIG. 9A): 1.136 point | reduction from baseline in pruritus morning ItchRO[Obs] score ([1]; FIC1 (PFIC 1) cohort, FIG. 9A): 1.4 points | improvements in pruritus (weekly ItchRO(Obs) score) ([1]; FIC1, MDR3, TJP2, MYO5B cohorts, FIG. 33A-B): statistically significant and clinically meaningful improvements | difference from the placebo group, morning ItchRO[Obs] score ([1]; MDR3 (PFIC 3) cohort, FIG. 9B): 0.594 point | reduction from baseline in pruritus morning ItchRO[Obs] score ([1]; MDR3 (PFIC 3) cohort, FIG. 9B): 1.8 points | difference vs placebo in proportion of pruritus responders (assessments ≤1) ([1]; PFIC cohort, Baseline to Week 26, FIG. 16B, 27B): 0.345 | difference vs placebo in proportion of pruritus responders (assessments ≤1 or decrease ≥1) ([1]; PFIC cohort, FIG. 17B): 0.380 | proportion of pruritus responders: proportion of assessments ≤1 or decrease ≥1 ([1]; PFIC cohort, FIG. 17B): over 0.7 | response to treatment ([1]; PFIC patients post surgery (full population)): significant response | improvements in pruritus severity ([1]; full-study population, FIG. 35A): statistically significant and clinically meaningful improvements | improvements in pruritus ([1]; patients with no-variant found, FIG. 35C): demonstrated improvements | pruritus change in individual t-BSEP patients (morning ItchRO(Obs)) ([1]; t-BSEP (truncated PFIC2) patients, Baseline to Week 26, FIG. 41D): limited improvement in pruritus | bilirubin, change from Baseline [2]: -2.64 mg/dL | Height Z-score, mean change from Baseline [3, 9]: +0.54 | Weight Z-score, mean change from Baseline [3, 9]: +0.44 | Height Z-score, mean change from Baseline [3, 10]: +0.46 | Weight Z-score, mean change from Baseline [3, 10]: +0.09
